According to BindingDB's records for doi:10.1021/jm061152t (Abbott Laboratories, 2007):
Several values for one entry are separate records, joined by “and”; a condition that tells them apart may be missing. Equal values may be shown once.

Assay: The binding affinities (Ki) of compounds were determined using fluorescence polarization assays (FPA) that measure their ability to competitively displace a Bad-derived peptide from Bcl-xL. Compound efficacy (EC50) in a cellular context was evaluated by testing their ability to reverse the protection from cytokine w

SMILES	EC50	EC50 (pH 7.4)
CN(C)CC[C@H](CSc1ccccc1)Nc1ccc(S(=O)(=O)NC(=O)c2ccc(N3CCN(C(=O)c4ccccc4)CC3)cc2)cc1[N+](=O)[O-] [4-(4-benzoylpiperazin-1-yl)-N-[(4-{[(2R)-4-(dimethylamino)-1-(phenylsulfanyl)butan-2-yl]amino}-3-nitrobenzene)sulfonyl]benzamide]	> 50 µM	14.6 µM
CN(C)CC[C@H](CSc1ccccc1)Nc1ccc(S(=O)(=O)NC(=O)c2ccc(N3CCN(Cc4ccccc4NC4CCCCC4)CC3)cc2)cc1[N+](=O)[O-] [4-(4-{[2-(cyclohexylamino)phenyl]methyl}piperazin-1-yl)-N-[(4-{[(2R)-4-(dimethylamino)-1-(phenylsulfanyl)butan-2-yl]amino}-3-nitrobenzene)sulfonyl]benzamide]	0.66 µM and 0.34 µM	
CN(C)CC[C@H](CSc1ccccc1)Nc1ccc(S(=O)(=O)NC(=O)c2ccc(N3CCN(C(=O)Nc4ccccc4)CC3)cc2)cc1[N+](=O)[O-] [4-(4-{[(4-{[(2R)-4-(dimethylamino)-1-(phenylsulfanyl)butan-2-yl]amino}-3-nitrobenzene)sulfonyl]carbamoyl}phenyl)-N-phenylpiperazine-1-carboxamide]	> 50 µM	> 50 µM
CN(C)CC[C@H](CSc1ccccc1)Nc1ccc(S(=O)(=O)NC(=O)c2ccc(N3CCN(Cc4ccccc4C4CCCCC4)CC3)cc2)cc1[N+](=O)[O-] [4-{4-[(2-cyclohexylphenyl)methyl]piperazin-1-yl}-N-[(4-{[(2R)-4-(dimethylamino)-1-(phenylsulfanyl)butan-2-yl]amino}-3-nitrobenzene)sulfonyl]benzamide]	0.34 µM and 0.12 µM	
CC1OC2(CCN(c3ccc(C(=O)NS(=O)(=O)c4ccc(N[C@H](CCN(C)C)CSc5ccccc5)c([N+](=O)[O-])c4)cc3)CC2)N(Cc2ccccc2)C1=O (stereo partly drawn) [4-{4-benzyl-2-methyl-3-oxo-1-oxa-4,8-diazaspiro[4.5]decan-8-yl}-N-[(4-{[(2R)-4-(dimethylamino)-1-(phenylsulfanyl)butan-2-yl]amino}-3-nitrobenzene)sulfonyl]benzamide]	> 50 µM	> 20 µM
CN(C)CC[C@H](CSc1ccccc1)Nc1ccc(S(=O)(=O)NC(=O)c2ccc(N3CCC(C)(C)CC3)cc2)cc1[N+](=O)[O-] [N-[(4-{[(2R)-4-(dimethylamino)-1-(phenylsulfanyl)butan-2-yl]amino}-3-nitrobenzene)sulfonyl]-4-(4,4-dimethylpiperidin-1-yl)benzamide]	2.2 µM	
CN(C)CC[C@H](CSc1ccccc1)Nc1ccc(S(=O)(=O)NC(=O)c2ccc(N3CCN(Cc4ccccc4N4CCOCC4)CC3)cc2)cc1[N+](=O)[O-] [N-[(4-{[(2R)-4-(dimethylamino)-1-(phenylsulfanyl)butan-2-yl]amino}-3-nitrobenzene)sulfonyl]-4-(4-{[2-(morpholin-4-yl)phenyl]methyl}piperazin-1-yl)benzamide]	0.43 µM and 0.46 µM	
CN(C)CC[C@H](CSc1ccccc1)Nc1ccc(S(=O)(=O)NC(=O)c2ccc(N3CCC(=Cc4ccccn4)CC3)cc2)cc1[N+](=O)[O-] [N-[(4-{[(2R)-4-(dimethylamino)-1-(phenylsulfanyl)butan-2-yl]amino}-3-nitrobenzene)sulfonyl]-4-[4-(pyridin-2-ylmethylidene)piperidin-1-yl]benzamide]	0.55 µM and 1.38 µM	

The remaining lines, values ahead:

EC50	EC50 (pH 7.4)	SMILES
1.7 µM	1.1 µM	CN(C)CC[C@H](CSc1ccccc1)Nc1ccc(S(=O)(=O)NC(=O)c2ccc(N3CCN(Cc4ccccc4)CC3)cc2)cc1[N+](=O)[O-] [4-(4-benzylpiperazin-1-yl)-N-[(4-{[(2R)-4-(dimethylamino)-1-(phenylsulfanyl)butan-2-yl]amino}-3-nitrobenzene)sulfonyl]benzamide]
0.056 µM and 0.027 µM		CN(C)CC[C@H](CSc1ccccc1)Nc1ccc(S(=O)(=O)NC(=O)c2ccc(N3CCN(Cc4ccccc4-c4ccccc4Cl)CC3)cc2)cc1[N+](=O)[O-] [4-(4-{[2-(2-chlorophenyl)phenyl]methyl}piperazin-1-yl)-N-[(4-{[(2R)-4-(dimethylamino)-1-(phenylsulfanyl)butan-2-yl]amino}-3-nitrobenzene)sulfonyl]benzamide]
0.18 µM and 0.033 µM		CN(C)CC[C@H](CSc1ccccc1)Nc1ccc(S(=O)(=O)NC(=O)c2ccc(N3CCN(Cc4ccccc4-c4cccc(Cl)c4)CC3)cc2)cc1[N+](=O)[O-] [4-(4-{[2-(3-chlorophenyl)phenyl]methyl}piperazin-1-yl)-N-[(4-{[(2R)-4-(dimethylamino)-1-(phenylsulfanyl)butan-2-yl]amino}-3-nitrobenzene)sulfonyl]benzamide]
0.38 µM and 0.46 µM		COc1cccc(-c2ccccc2CN2CCN(c3ccc(C(=O)NS(=O)(=O)c4ccc(N[C@H](CCN(C)C)CSc5ccccc5)c([N+](=O)[O-])c4)cc3)CC2)c1 [N-[(4-{[(2R)-4-(dimethylamino)-1-(phenylsulfanyl)butan-2-yl]amino}-3-nitrobenzene)sulfonyl]-4-(4-{[2-(3-methoxyphenyl)phenyl]methyl}piperazin-1-yl)benzamide]
0.13 µM and 0.027 µM		CN(C)CC[C@H](CSc1ccccc1)Nc1ccc(S(=O)(=O)NC(=O)c2ccc(N3CCN(Cc4ccccc4-c4ccc(F)cc4)CC3)cc2)cc1[N+](=O)[O-] [N-[(4-{[(2R)-4-(dimethylamino)-1-(phenylsulfanyl)butan-2-yl]amino}-3-nitrobenzene)sulfonyl]-4-(4-{[2-(4-fluorophenyl)phenyl]methyl}piperazin-1-yl)benzamide]
0.03 µM and 0.025 µM		COc1ccc(-c2ccccc2CN2CCN(c3ccc(C(=O)NS(=O)(=O)c4ccc(N[C@H](CCN(C)C)CSc5ccccc5)c([N+](=O)[O-])c4)cc3)CC2)cc1 [N-[(4-{[(2R)-4-(dimethylamino)-1-(phenylsulfanyl)butan-2-yl]amino}-3-nitrobenzene)sulfonyl]-4-(4-{[2-(4-methoxyphenyl)phenyl]methyl}piperazin-1-yl)benzamide]
0.022 µM and 0.068 µM		CN(C)CC[C@H](CSc1ccccc1)Nc1ccc(S(=O)(=O)NC(=O)c2ccc(N3CCN(Cc4ccccc4-c4ccc(-c5ccccc5)cc4)CC3)cc2)cc1[N+](=O)[O-] [N-[(4-{[(2R)-4-(dimethylamino)-1-(phenylsulfanyl)butan-2-yl]amino}-3-nitrobenzene)sulfonyl]-4-(4-{[2-(4-phenylphenyl)phenyl]methyl}piperazin-1-yl)benzamide]
0.095 µM and 0.13 µM		CSc1ccccc1CN1CCN(c2ccc(C(=O)NS(=O)(=O)c3ccc(N[C@H](CCN(C)C)CSc4ccccc4)c([N+](=O)[O-])c3)cc2)CC1 [N-[(4-{[(2R)-4-(dimethylamino)-1-(phenylsulfanyl)butan-2-yl]amino}-3-nitrobenzene)sulfonyl]-4-(4-{[2-(methylsulfanyl)phenyl]methyl}piperazin-1-yl)benzamide]
0.8 µM and 0.82 µM		CN(C)CC[C@H](CSc1ccccc1)Nc1ccc(S(=O)(=O)NC(=O)c2ccc(N3CCN(Cc4ccccc4-c4cccnc4)CC3)cc2)cc1[N+](=O)[O-] [N-[(4-{[(2R)-4-(dimethylamino)-1-(phenylsulfanyl)butan-2-yl]amino}-3-nitrobenzene)sulfonyl]-4-(4-{[2-(pyridin-3-yl)phenyl]methyl}piperazin-1-yl)benzamide]
0.39 µM and 0.13 µM		CN(C)CC[C@H](CSc1ccccc1)Nc1ccc(S(=O)(=O)NC(=O)c2ccc(N3CCN(Cc4ccccc4C(F)(F)F)CC3)cc2)cc1[N+](=O)[O-] [N-[(4-{[(2R)-4-(dimethylamino)-1-(phenylsulfanyl)butan-2-yl]amino}-3-nitrobenzene)sulfonyl]-4-(4-{[2-(trifluoromethyl)phenyl]methyl}piperazin-1-yl)benzamide]
